# Assay results taken from US12622910B2, “Inhibitors of Bruton's tyrosine kinase and methods of their use” (Janssen Pharmaceutica NV, priority 2021, dated 2026).
# Legend:
# 5-HT1A (h) = 5-HT1A (h) (Homo sapiens, UniProt P08908); test: Receptor panel, Study 1; assay type: binding
# Experimental: (§1) RESULTS AND DISCUSSION—Selectivity—The compound of Formula (III) was evaluated in three selectivity panels to assess the potential for off-target pharmacology (Table 8). […] The kinase off-target profile of The compound of Formula (III) was assessed in a full human wild-type panel using radiometric kinase activity assays (KinaseProfiler™ and IC50Profiler™; Eurofins Scientific) (Table 9; FIG. 23). The compound of Formula (III) inhibited 4/278 kinases >50% at 1 micromolar, identifying BTK and the three other kinases having analogous Cys residues with the potential for covalent inhibition (BMX, TEC, BLK). […]. The cellular kinase selectivity of The compound of Formula (III) was established in native Ramos B cell kinome assays (KiNativ™; ActivX) confirmed BTK as the primary target with inhibition of BLK and TEC inhibition detected (Table 10).
# VIP1 (h) (VPAC1) = VIP1 (h) (VPAC1) (Homo sapiens, UniProt P32241); test: Receptor panel, Study 1; assay type: binding
# Experimental: as §1
# M1 (h) = M1 (h) (Homo sapiens, UniProt P11229); test: Receptor panel, Study 1; assay type: binding
# Experimental: as §1
# Na^+ channel (site 2) = test: Receptor panel, Study 1; assay type: binding
# Experimental: as §1
# H1 (h) = H1 (h) (Homo sapiens, UniProt P35367); test: Receptor panel, Study 1; assay type: binding
# Sequence of H1 (h) (P35367 whole entry): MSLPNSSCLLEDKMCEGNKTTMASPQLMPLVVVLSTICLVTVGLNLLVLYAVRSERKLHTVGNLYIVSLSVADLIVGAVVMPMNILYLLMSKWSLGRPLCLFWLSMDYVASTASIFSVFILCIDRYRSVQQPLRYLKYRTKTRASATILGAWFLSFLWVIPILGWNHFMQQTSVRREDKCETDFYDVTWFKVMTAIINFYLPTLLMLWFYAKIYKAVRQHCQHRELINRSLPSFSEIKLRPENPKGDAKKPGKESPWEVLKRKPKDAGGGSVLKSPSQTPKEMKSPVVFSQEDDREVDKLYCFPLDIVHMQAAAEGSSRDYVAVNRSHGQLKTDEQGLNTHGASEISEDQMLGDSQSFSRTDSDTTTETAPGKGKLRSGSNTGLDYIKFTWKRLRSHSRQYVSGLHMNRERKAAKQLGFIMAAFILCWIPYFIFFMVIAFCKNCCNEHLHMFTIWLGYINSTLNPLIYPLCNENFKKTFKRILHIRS
# Experimental: as §1
# DA transporter (h) = DA transporter (h) (Homo sapiens, UniProt Q01959); test: Receptor panel, Study 1; assay type: binding
# Experimental: as §1
# H2 (h) = H2 (h) (Homo sapiens, UniProt P25021); test: Receptor panel, Study 1; assay type: binding
# Sequence of H2 (h) (P25021 whole entry): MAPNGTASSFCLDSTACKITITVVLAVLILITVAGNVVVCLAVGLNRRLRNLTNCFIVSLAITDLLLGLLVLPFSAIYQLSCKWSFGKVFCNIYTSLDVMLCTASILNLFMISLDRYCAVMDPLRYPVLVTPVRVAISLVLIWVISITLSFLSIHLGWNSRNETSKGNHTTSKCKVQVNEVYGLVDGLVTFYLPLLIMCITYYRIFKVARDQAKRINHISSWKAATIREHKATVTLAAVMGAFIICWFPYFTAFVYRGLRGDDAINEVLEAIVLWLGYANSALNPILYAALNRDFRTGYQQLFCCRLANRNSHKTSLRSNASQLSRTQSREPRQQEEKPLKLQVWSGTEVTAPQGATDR
# Experimental: as §1
# M3 (h) = M3 (h) (Homo sapiens, UniProt P20309); test: Receptor panel, Study 1; assay type: binding
# Experimental: as §1
# SK^+Ca channel = test: Receptor panel, Study 1; assay type: binding
# Experimental: as §1
# D2S (h) = D2S (h) (Homo sapiens, UniProt P14416); test: Receptor panel, Study 1; assay type: binding
# Sequence of D2S (h) (P14416 1-414 isoform P14416-2): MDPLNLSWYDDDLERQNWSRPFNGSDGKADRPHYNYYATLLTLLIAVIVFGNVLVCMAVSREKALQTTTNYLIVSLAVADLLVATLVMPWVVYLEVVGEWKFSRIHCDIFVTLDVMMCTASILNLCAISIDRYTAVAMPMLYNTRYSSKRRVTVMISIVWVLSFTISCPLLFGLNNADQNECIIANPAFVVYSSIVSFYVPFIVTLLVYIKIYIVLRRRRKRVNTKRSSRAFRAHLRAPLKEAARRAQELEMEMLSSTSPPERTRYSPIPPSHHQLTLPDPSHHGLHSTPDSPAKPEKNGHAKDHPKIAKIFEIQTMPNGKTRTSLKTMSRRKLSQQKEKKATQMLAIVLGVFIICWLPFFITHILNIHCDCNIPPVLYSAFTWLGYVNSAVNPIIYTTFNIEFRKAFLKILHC
# Experimental: as §1
# Y2 (h) = Y2 (h) (Homo sapiens, UniProt P49146); test: Receptor panel, Study 1; assay type: binding
# Sequence of Y2 (h) (P49146 whole entry): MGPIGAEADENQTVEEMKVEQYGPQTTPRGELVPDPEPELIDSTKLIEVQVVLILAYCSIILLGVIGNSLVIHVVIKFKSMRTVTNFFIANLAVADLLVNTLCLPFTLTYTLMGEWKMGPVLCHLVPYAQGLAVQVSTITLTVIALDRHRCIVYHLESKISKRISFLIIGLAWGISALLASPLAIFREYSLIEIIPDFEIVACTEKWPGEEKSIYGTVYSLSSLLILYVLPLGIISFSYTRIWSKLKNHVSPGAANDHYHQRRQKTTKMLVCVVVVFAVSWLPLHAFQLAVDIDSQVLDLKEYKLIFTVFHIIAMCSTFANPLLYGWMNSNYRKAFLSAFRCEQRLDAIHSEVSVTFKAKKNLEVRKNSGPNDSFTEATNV
# Experimental: as §1
# Cl^− channel = test: Receptor panel, Study 1; assay type: binding
# Experimental: as §1
# BZD (central) = test: Receptor panel, Study 1; assay type: binding
# Experimental: as §1
# NK3 (h) = NK3 (h) (Homo sapiens, UniProt P29371); test: Receptor panel, Study 1; assay type: binding
# Sequence of NK3 (h) (P29371 whole entry): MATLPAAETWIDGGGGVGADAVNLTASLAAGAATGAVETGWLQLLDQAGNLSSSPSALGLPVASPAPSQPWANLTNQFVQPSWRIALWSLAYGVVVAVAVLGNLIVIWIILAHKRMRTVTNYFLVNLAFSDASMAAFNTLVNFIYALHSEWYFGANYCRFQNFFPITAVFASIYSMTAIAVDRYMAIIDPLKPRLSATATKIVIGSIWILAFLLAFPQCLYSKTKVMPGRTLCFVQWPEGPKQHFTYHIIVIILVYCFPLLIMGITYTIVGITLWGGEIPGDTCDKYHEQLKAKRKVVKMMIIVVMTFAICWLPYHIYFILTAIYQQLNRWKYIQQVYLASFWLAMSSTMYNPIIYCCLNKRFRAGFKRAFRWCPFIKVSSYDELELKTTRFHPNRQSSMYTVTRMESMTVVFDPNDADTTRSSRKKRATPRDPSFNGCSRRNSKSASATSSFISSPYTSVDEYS
# Experimental: as §1
# NK2 (h) = NK2 (h) (Homo sapiens, UniProt P21452); test: Receptor panel, Study 1; assay type: binding
# Experimental: as §1
# CCKA (h) (CCK1) = CCKA (h) (CCK1) (Homo sapiens, UniProt P32238); test: Receptor panel, Study 1; assay type: binding
# Experimental: as §1
# CXCR2 (h) (IL-8B) = CXCR2 (h) (IL-8B) (Homo sapiens, UniProt P25025); test: Receptor panel, Study 1; assay type: binding
# Sequence of CXCR2 (h) (IL-8B) (P25025 whole entry): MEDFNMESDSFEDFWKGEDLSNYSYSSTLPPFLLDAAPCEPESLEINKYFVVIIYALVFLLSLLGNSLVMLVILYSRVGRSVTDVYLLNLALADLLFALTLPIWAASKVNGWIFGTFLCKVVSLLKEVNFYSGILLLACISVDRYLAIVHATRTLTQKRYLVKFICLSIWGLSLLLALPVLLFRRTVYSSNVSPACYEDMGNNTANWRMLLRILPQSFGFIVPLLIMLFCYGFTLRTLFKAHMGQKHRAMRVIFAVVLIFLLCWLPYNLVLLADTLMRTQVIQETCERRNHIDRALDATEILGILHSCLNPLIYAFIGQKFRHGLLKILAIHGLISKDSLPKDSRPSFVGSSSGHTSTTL
# Experimental: as §1
# GAL2 (h) = GAL2 (h) (Homo sapiens, UniProt O43603); test: Receptor panel, Study 1; assay type: binding
# Sequence of GAL2 (h) (O43603 whole entry): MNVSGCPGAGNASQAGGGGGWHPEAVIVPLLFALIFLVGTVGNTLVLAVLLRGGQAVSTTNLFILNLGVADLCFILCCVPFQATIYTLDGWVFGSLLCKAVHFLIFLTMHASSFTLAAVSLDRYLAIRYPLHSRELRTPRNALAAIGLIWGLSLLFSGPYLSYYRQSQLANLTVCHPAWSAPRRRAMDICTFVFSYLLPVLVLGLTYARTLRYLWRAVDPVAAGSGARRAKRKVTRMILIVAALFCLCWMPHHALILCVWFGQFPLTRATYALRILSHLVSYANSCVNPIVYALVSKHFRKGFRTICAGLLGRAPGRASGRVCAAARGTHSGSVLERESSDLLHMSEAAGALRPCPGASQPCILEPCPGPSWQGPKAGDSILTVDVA
# Experimental: as §1
# MT1 (h) = MT1 (h) (Homo sapiens, UniProt P48039); test: Receptor panel, Study 1; assay type: binding
# Sequence of MT1 (h) (P48039 whole entry): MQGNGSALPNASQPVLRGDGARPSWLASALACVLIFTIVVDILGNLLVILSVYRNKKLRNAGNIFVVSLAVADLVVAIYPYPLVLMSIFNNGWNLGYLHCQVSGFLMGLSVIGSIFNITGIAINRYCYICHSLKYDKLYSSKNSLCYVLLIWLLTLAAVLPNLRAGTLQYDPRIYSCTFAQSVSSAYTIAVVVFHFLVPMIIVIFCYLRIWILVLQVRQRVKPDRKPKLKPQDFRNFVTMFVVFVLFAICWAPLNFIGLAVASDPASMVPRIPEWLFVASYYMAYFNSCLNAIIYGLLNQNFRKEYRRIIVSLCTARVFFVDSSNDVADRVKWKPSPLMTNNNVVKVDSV
# Experimental: as §1
# 5-HT2A (h) = 5-HT2A (h) (Homo sapiens, UniProt P28223); test: Receptor panel, Study 1; assay type: binding
# Sequence of 5-HT2A (h) (P28223 whole entry): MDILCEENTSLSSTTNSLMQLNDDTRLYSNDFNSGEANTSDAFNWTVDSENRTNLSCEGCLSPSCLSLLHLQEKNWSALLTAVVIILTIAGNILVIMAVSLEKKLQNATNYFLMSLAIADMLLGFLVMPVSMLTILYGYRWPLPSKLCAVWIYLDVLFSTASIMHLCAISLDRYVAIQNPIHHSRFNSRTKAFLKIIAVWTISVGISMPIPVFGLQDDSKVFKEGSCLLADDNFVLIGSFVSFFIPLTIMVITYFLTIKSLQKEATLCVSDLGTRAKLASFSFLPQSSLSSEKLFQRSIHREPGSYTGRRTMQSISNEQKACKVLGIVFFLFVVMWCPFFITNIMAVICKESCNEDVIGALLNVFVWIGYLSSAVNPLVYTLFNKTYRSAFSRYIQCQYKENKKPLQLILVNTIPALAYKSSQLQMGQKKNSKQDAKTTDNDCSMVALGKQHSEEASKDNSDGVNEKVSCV
# Experimental: as §1
# Y1 (h) = Y1 (h) (Homo sapiens, UniProt P25929); test: Receptor panel, Study 1; assay type: binding
# Experimental: as §1
# BTK = target: T1, BTK (Rattus norvegicus, UniProt Q5S255); test: Rat in vivo BTK target engagement (occupancy ELISA in blood); set-up: species or system female Wistar rat; conditions: read-out: BTK target occupancy after 8 and 24 hours
# T1 construct: Cell lysates were prepared from the blood samples using cell lysis buffer; from tissue; host or cells: blood of female Wistar rats (cell lysates)
# T1 sequence (Q5S255 1-660): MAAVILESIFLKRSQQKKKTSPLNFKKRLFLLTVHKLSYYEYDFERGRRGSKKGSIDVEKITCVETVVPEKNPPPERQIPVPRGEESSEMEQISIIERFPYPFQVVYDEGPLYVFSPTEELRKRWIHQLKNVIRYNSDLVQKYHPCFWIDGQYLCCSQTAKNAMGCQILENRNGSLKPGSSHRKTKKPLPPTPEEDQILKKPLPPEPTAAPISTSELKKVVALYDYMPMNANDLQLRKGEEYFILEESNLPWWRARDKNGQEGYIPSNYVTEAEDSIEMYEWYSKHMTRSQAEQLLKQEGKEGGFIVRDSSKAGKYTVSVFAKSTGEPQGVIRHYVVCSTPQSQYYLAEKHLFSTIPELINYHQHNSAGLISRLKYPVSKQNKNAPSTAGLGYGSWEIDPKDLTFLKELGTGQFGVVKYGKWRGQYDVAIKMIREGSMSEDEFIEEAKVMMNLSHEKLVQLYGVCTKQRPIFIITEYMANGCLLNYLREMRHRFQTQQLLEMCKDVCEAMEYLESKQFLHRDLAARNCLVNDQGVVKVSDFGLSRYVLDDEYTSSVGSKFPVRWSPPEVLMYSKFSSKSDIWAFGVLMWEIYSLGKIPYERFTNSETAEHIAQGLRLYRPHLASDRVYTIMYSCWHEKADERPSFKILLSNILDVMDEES
# Experimental: In Vivo BTK Engagement—BTK receptor occupancy and plasma concentrations of the Compound of Formula (III) increased in a dose-dependent manner following a single oral dose in rat (FIG. 15). Doses of 2 mg/kg or higher consistently achieved sustained target occupancy after 8 and 24 hours (>75% following a 2 mg/kg dose, ≥88% following a 3 mg/kg dose, and ≥99% following a 10 mg/kg dose). Target occupancy was maintained at 24 h even after parent drug plasma levels decreased, indicating persistent BTK occupancy, a hallmark of the covalent mechanism. Considering that 70% to 80% BTK target engagement for 7 to 8 hours in a chronic dosing regimen is associated with anti-inflammatory activity in rodent efficacy models, 75% target engagement at 7.5 hours was identified as the desired level of target engagement.
# BTK Occupancy PK/PD Model—Rat in vivo target engagement—Two studies were conducted in which the compound of Formula (III) formulated in 20% HPCD, was administered orally to female Wistar rats. In study 1, compound of Formula (III) was evaluated at oral doses of 0.3, 1, 3 and 10 mg/kg; in study 2, compound of Formula (III) was evaluated at oral doses of 0.1, 0.3, 1, 2 and 3 mg/kg. (n=4/group for both studies). In both experiments, at assigned time points postdose (0.5, 4, 8 and 24 hr), animals were anesthetized and approximately 140 μL of blood was obtained by retro-orbital bleeding into heparinized tubes. These samples were split into two aliquots, with one aliquot used to measure compound levels by liquid chromatography mass spectrophotometry method and the other aliquot to assess BTK occupancy by a target-site occupancy ELISA.
# Cell lysates were prepared from the blood samples using cell lysis buffer (BD Pharmingen™, BD Biosciences). Free BTK protein in each sample is tagged by the addition a biotinylated probe (1 μL of a 25 μM working solution per sample, final concentration 250 nM), which is then captured on the surface of a streptavidin coated microtiter plate and detected by ELISA using an antibody specific for BTK (BD Transduction). […]
# B-cell activation = test: Inhibition of B-cell activation after dosing (FIG. 22); assay type: in vivo; conditions: 2, 3, and 10 mg/kg, at 8 hours
# Description: Data represent mean±SEM (n=3/group).
# Sequence of 5-HT1A (h) (P08908 whole entry): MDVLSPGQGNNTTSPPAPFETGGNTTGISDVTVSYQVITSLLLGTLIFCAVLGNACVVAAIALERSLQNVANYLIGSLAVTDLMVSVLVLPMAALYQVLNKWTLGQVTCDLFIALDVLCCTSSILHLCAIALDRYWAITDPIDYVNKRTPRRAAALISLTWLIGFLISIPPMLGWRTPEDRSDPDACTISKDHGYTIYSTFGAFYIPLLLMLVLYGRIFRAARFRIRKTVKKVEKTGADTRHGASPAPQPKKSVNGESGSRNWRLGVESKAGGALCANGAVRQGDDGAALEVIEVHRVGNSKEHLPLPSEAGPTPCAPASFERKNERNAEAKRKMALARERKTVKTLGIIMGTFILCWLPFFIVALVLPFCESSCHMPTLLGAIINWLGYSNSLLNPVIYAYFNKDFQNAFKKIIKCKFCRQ
smiles,measurement,setting,value
"C=CC(=O)N[C@H]1CCC[C@H]1NC(=O)c1sc2nccc3c2c1NC(=O)N3c1cnc(CC(C)C)cc1C (atropisomer, axis not shown) [compound of Formula (III), N-((1R,2S)-2-Acrylamidocyclopentyl)-5-(S)-(6-isobutyl-4-methylpyridin-3-yl)-4-oxo-4,5-dihydro-3H-1-thia-3,5,8-triazaacenaphthylene-2-carboxamide]",inhibition at 10 µM,5-HT1A (h),< 10%
same,inhibition at 10 µM,VIP1 (h) (VPAC1),< 10%
same,inhibition at 10 µM,M1 (h),< 10%
same,% Inhibition at 10 μM,Na^+ channel (site 2),— (no inhibition observed)
same,inhibition at 10 µM,H1 (h),< 10%
same,inhibition at 10 µM,DA transporter (h),< 10%
same,inhibition at 10 µM,H2 (h),< 10%
same,inhibition at 10 µM,M3 (h),< 10%
same,% Inhibition at 10 μM,SK^+Ca channel,— (no inhibition observed)
same,inhibition at 10 µM,D2S (h),< 10%
same,inhibition at 10 µM,Y2 (h),< 10%
same,% Inhibition at 10 μM,Cl^− channel,25.1%
same,% Inhibition at 10 μM,BZD (central),— (no inhibition observed)
same,inhibition at 10 µM,NK3 (h),38.9%
same,inhibition at 10 µM,NK2 (h),16%
same,inhibition at 10 µM,CCKA (h) (CCK1),23.7%
same,inhibition at 10 µM,CXCR2 (h) (IL-8B),< 10%
same,inhibition at 10 µM,GAL2 (h),< 10%
same,inhibition at 10 µM,MT1 (h),13.4%
same,inhibition at 10 µM,5-HT2A (h),< 10%
same,inhibition at 10 µM,Y1 (h),44.4%
same,receptor occupancy at 2 mg/kg,BTK; single oral 2 mg/kg,> 75%
same,receptor occupancy at 3 mg/kg,BTK; single oral 3 mg/kg,≥ 88%
same,receptor occupancy at 10 mg/kg,BTK; single oral 10 mg/kg,≥ 99%
same,inhibition ratio of B-cell activation,B-cell activation,≥ 78%
